Data from PubChem BioAssay (NCI).
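Five compound concentrations were applied to cells in 96-well plates for 48 hours; endpoints were derived by simple linear interpolation of the resulting dose-response curve. At the GI50, growth is halved. At the TGI there is no net growth.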

How the values were obtained:
Test in all cases: growth of human tumour cells (NCI), 48 h
[1] = tested on: HOP-62 NSCLC
[2] = tested on: SK-OV-3 ovarian
[3] = tested on: RPMI-8226 leukemia
[4] = tested on: UACC-257 melanoma
[5] = tested on: SF-295 CNS
[6] = tested on: OVCAR-3 ovarian
[7] = tested on: SK-MEL-5 melanoma
[8] = tested on: PC-3 prostate
[9] = tested on: MALME-3M melanoma
[10] = tested on: KM12 colon
[11] = tested on: BT-549 breast
[12] = tested on: HS 578T breast
[13] = tested on: NCI-H23 lung
[14] = tested on: SW-620 colon
[15] = tested on: SNB-19 CNS
[16] = tested on: LOX IMVI melanoma
[17] = tested on: NCI-H226 lung
[18] = tested on: 786-0 renal
[19] = tested on: COLO 205 colon
[20] = tested on: DU-145 prostate
[21] = tested on: T-47D breast
[22] = tested on: M14 melanoma
[23] = tested on: MDA-MB-231 breast
[24] = tested on: HT29 colon
[25] = tested on: OVCAR-4 ovarian
[26] = tested on: HCC-2998 colon
[27] = tested on: NCI/ADR-RES ovarian
[28] = tested on: UACC-62 melanoma
[29] = tested on: SR leukemia
[30] = tested on: TK-10 renal
[31] = tested on: HCT-15 colon
[32] = tested on: RXF 393 renal
[33] = tested on: HL-60(TB) leukemia
[34] = tested on: NCI-H522 lung
[35] = tested on: CAKI-1 renal
[36] = tested on: A549 NSCLC
[37] = tested on: SK-MEL-28 melanoma
[38] = tested on: SNB-75 CNS
[39] = tested on: NCI-H460 lung
[40] = tested on: ACHN renal
[41] = tested on: MOLT-4 leukemia
[42] = tested on: SF-268 CNS
[43] = tested on: SK-MEL-2 melanoma
[44] = tested on: U251 CNS
[45] = tested on: MDA-MB-435
[46] = tested on: OVCAR-8 ovarian
[47] = tested on: A498 renal
[48] = tested on: HCT-116 colon
[49] = tested on: UO-31 renal
[50] = tested on: HOP-92 NSCLC
[51] = tested on: EKVX NSCLC
[52] = tested on: MCF7 breast
[53] = tested on: IGROV1 ovarian
[54] = tested on: CCRF-CEM leukemia
[55] = tested on: OVCAR-5 ovarian
[56] = tested on: SN12C renal
[57] = tested on: K-562 leukemia
[58] = tested on: SF-539 CNS

CCO/C=N/C1=C(C#N)C(c2ccc(Cl)cc2)c2sc3c(CC)cccc3c2O1 (stereo not drawn)
GI50 [1]: 4.78 µM | TGI [1]: 23.6 µM | GI50 [2]: 5.26 µM | TGI [2]: 21 µM | GI50 [3]: 2.42 µM | TGI [3]: 14.4 µM | GI50 [4]: 11.1 µM | TGI [4]: 26.1 µM | GI50 [5]: 0.331 µM | TGI [5]: 1.27 µM | GI50 [6]: 0.813 µM | TGI [6]: 13.2 µM | GI50 [7]: 4.19 µM | TGI [7]: 16.4 µM | GI50 [8]: 0.788 µM | TGI [8]: 11.4 µM | GI50 [9]: 10.1 µM | TGI [9]: 22.6 µM | GI50 [10]: 0.876 µM | TGI [10]: 12.5 µM | GI50 [11]: 2.64 µM | TGI [11]: 16.5 µM | GI50 [12]: 1.85 µM | TGI [12]: 12.6 µM | GI50 [13]: 2.56 µM | TGI [13]: 13.1 µM | GI50 [14]: 0.71 µM | TGI [14]: 16.9 µM | GI50 [15]: 1.9 µM | TGI [15]: 13.9 µM | GI50 [16]: 1.45 µM | TGI [16]: 14.4 µM | GI50 [17]: 5.94 µM | TGI [17]: 25.3 µM | GI50 [18]: 2.23 µM | TGI [18]: 14 µM | GI50 [19]: 3.36 µM | TGI [19]: 11.1 µM | GI50 [20]: 2.49 µM | TGI [20]: 12.4 µM | GI50 [21]: 2.51 µM | TGI [21]: 15.5 µM | GI50 [22]: 1.21 µM | TGI [22]: 11.7 µM | GI50 [23]: 3.96 µM | TGI [23]: 16.9 µM | GI50 [24]: 2.39 µM | TGI [24]: 10.1 µM | GI50 [25]: 4.79 µM | TGI [25]: 19.6 µM | GI50 [26]: 1.65 µM | TGI [26]: 4.95 µM | GI50 [27]: 0.475 µM | TGI [27]: 3.14 µM | GI50 [28]: 0.596 µM | TGI [28]: 17.4 µM | GI50 [29]: 0.651 µM | TGI [29]: 18.4 µM | GI50 [30]: 7.79 µM | TGI [30]: 20.6 µM | GI50 [31]: 0.617 µM | TGI [31]: 10.6 µM | GI50 [32]: 1.41 µM | TGI [32]: 5.57 µM | GI50 [33]: 1.34 µM | TGI [33]: 11.7 µM | GI50 [34]: 0.433 µM | TGI [34]: 4.57 µM | GI50 [35]: 0.703 µM | TGI [35]: 18 µM | GI50 [36]: 1.25 µM | TGI [36]: 17.2 µM | GI50 [37]: 4.04 µM | TGI [37]: 20.4 µM | GI50 [38]: 0.206 µM | TGI [38]: 2.01 µM | GI50 [39]: 1.74 µM | TGI [39]: 14.2 µM | GI50 [40]: 1.21 µM | TGI [40]: 15.4 µM | GI50 [41]: 3.02 µM | TGI [41]: 17 µM | GI50 [42]: 4.99 µM | TGI [42]: 21.1 µM | GI50 [43]: 1.65 µM | TGI [43]: 18.3 µM | GI50 [44]: 2.38 µM | TGI [44]: 13.5 µM | GI50 [45]: 0.307 µM | TGI [45]: 0.878 µM | GI50 [46]: 2.77 µM | TGI [46]: 15.1 µM | GI50 [47]: 0.416 µM | TGI [47]: 10.7 µM | GI50 [48]: 0.801 µM | TGI [48]: 12.5 µM | GI50 [49]: 2.2 µM | TGI [49]: 16 µM | GI50 [50]: 1.53 µM | TGI [50]: 17.8 µM | GI50 [51]: 2.11 µM | TGI [51]: 14.8 µM | GI50 [52]: 0.475 µM | TGI [52]: 10.7 µM | GI50 [53]: 0.702 µM | TGI [53]: 14.7 µM | GI50 [54]: 1.66 µM | TGI [54]: 24.9 µM | GI50 [55]: 3.24 µM | TGI [55]: 14.4 µM | GI50 [56]: 3.03 µM | TGI [56]: 14.5 µM | GI50 [57]: 0.553 µM | TGI [57]: 20.6 µM | GI50 [58]: 1.43 µM | TGI [58]: 3.6 µM

CCNC(=O)Oc1ccc(/C(=C(/C)c2ccc(OC)cc2)c2ccc(OCCN3CCCCCC3)cc2)cc1
GI50 [1]: 5.84 µM | TGI [1]: 12.3 µM | GI50 [2]: 5.01 µM | TGI [2]: 11.1 µM | GI50 [3]: 1.18 µM | TGI [3]: 3.21 µM | GI50 [4]: 1.06 µM | TGI [4]: 2.76 µM | GI50 [5]: 1.15 µM | TGI [5]: 3.44 µM | GI50 [7]: 2.23 µM | TGI [7]: 8.13 µM | GI50 [8]: 2.75 µM | TGI [8]: 9.67 µM | GI50 [9]: 1.1 µM | TGI [9]: 2.57 µM | GI50 [10]: 8.88 µM | TGI [10]: 16.7 µM | GI50 [11]: 5.06 µM | TGI [11]: 10.9 µM | GI50 [12]: 2.48 µM | TGI [12]: 11.3 µM | GI50 [14]: 1.3 µM | TGI [14]: 3.28 µM | GI50 [15]: 5.92 µM | TGI [15]: 12.2 µM | GI50 [16]: 0.865 µM | TGI [16]: 1.91 µM | GI50 [17]: 6.42 µM | TGI [17]: 14.6 µM | GI50 [18]: 1.86 µM | TGI [18]: 6.78 µM | GI50 [19]: 1.07 µM | TGI [19]: 2.38 µM | GI50 [20]: 6.76 µM | TGI [20]: 13.2 µM | GI50 [21]: 1.23 µM | TGI [21]: 7.88 µM | GI50 [22]: 0.913 µM | TGI [22]: 1.83 µM | GI50 [23]: 2.74 µM | TGI [23]: 9.28 µM | GI50 [24]: 1.66 µM | TGI [24]: 6.08 µM | GI50 [25]: 5.16 µM | TGI [25]: 11.7 µM | GI50 [26]: 2.93 µM | TGI [26]: 9.29 µM | GI50 [27]: 4.41 µM | TGI [27]: 11.1 µM | GI50 [28]: 1.79 µM | TGI [28]: 6.33 µM | GI50 [29]: 1.06 µM | TGI [29]: 2.76 µM | GI50 [30]: 9.35 µM | TGI [30]: 16.5 µM | GI50 [31]: 1.57 µM | TGI [31]: 6.68 µM | GI50 [32]: 1.3 µM | TGI [32]: 5.03 µM | GI50 [33]: 1.39 µM | TGI [33]: 4.59 µM | GI50 [34]: 6.43 µM | TGI [34]: 13.5 µM | GI50 [35]: 2.34 µM | TGI [35]: 8.3 µM | GI50 [36]: 3.88 µM | TGI [36]: 10.3 µM | GI50 [37]: 1.45 µM | TGI [37]: 4.48 µM | GI50 [38]: 6.03 µM | TGI [38]: 12.9 µM | GI50 [39]: 1.95 µM | TGI [39]: 6.91 µM | GI50 [40]: 6.04 µM | TGI [40]: 12.2 µM | GI50 [41]: 1.44 µM | TGI [41]: 5.06 µM | GI50 [42]: 6.69 µM | TGI [42]: 15 µM | GI50 [43]: 5.18 µM | TGI [43]: 11.2 µM | GI50 [44]: 2.55 µM | TGI [44]: 8.87 µM | GI50 [45]: 3.69 µM | TGI [45]: 10.3 µM | GI50 [46]: 5.72 µM | TGI [46]: 12.2 µM | GI50 [47]: 2.67 µM | TGI [47]: 9.65 µM | GI50 [48]: 2.57 µM | TGI [48]: 8.68 µM | GI50 [49]: 1.43 µM | TGI [49]: 5.53 µM | GI50 [50]: 1.89 µM | TGI [50]: 9.17 µM | GI50 [51]: 6.39 µM | TGI [51]: 13.5 µM | GI50 [52]: 0.786 µM | TGI [52]: 7.41 µM | GI50 [53]: 5.42 µM | TGI [53]: 12.5 µM | GI50 [54]: 2.25 µM | TGI [54]: 33.4 µM | GI50 [55]: 6.48 µM | TGI [55]: 12.8 µM | GI50 [56]: 5.55 µM | TGI [56]: 12.1 µM | GI50 [57]: 1.22 µM | TGI [57]: 3.37 µM | GI50 [58]: 2.08 µM | TGI [58]: 7.74 µM
